BindingDB's records for doi:10.1021/jm00222a039 (1978)

Experiment: Inhibition of HMG-coA reductase in CD rat liver microsomal-cytosol fraction assessed as inhibition of fatty acid synthesis using [2-14C]acetate as substrate after 90 mins by scintillation counting analysis

Compound	IC50 [µM]
CC(CCc1ccc(S(=O)(=O)c2ccccc2)cc1)CC(=O)O (configuration not stated)	80
CC(CCc1ccc(Sc2ccccc2)cc1)CC(=O)O (configuration not stated)	100
CC(CC(=O)O)CC(=O)c1ccc2oc3ccccc3c2c1 (configuration not stated)	430
CC(CCc1ccc(Oc2ccccc2)cc1)CC(=O)O (configuration not stated)	80
CC(CC(=O)O)CC(=O)c1ccc(Oc2ccccc2)cc1 (configuration not stated)	2100
CC(CCc1ccc(-c2ccccc2)cc1)CC(=O)O (configuration not stated)	80
CC(CCc1ccc2c(c1)-c1ccccc1S2(=O)=O)CC(=O)O (configuration not stated)	30
CC(CC(=O)O)CC(=O)c1ccc(-c2ccccc2)cc1 (configuration not stated)	1200
CC(CC(=O)O)CC(=O)c1ccc2sc3ccccc3c2c1 (configuration not stated)	930
CC(CCc1ccc2oc3ccccc3c2c1)CC(=O)O (configuration not stated)	1600
CC(CCc1ccc2sc3ccccc3c2c1)CC(=O)O (configuration not stated)	860
CC(CC(=O)O)CC(=O)c1ccc(Sc2ccccc2)cc1 (configuration not stated)	780
